Consider one compound from patent publication US20180230097A1, “PROCESS FOR PREPARATION OF APREMILAST AND NOVEL POLYMORPHS THEREOF” (LUPIN LIMITED, priority 2015, published 2018).

Structures are written as SMILES.

Data set [1] can be described thus: Polymorph stability under temperature/humidity storage (PXRD, FIG. 15 and 16). In kind it is physicochemical. The following applies: 25° C. to 40° C. temperature, 5% to 75% humidity (RH); FIG. 15 25° C./60% RH/2M, FIG. 16 40° C./75% RH/2M. The method, then: The term “stable” with respect polymorph or to a drug dosage form, refers to the chemical and physical integrity of the polymorph or dosage unit and, when appropriate, the ability of the dosage unit to maintain protection against microbiological contamination.
The Form M of apremilast is stable at different set of conditions such as 25° C. to 40° C. temperature, 5% to 75% humidity (RH) for durations as depicted in FIG. 15 and FIG. 16.
Using a PANalytical X'Pert powder diffraction meter, the x-ray powder diffraction pattern was measured at room temperature using a Cu Ka filled tube (45 kV 40 mA) as the x-ray source. Data collection was done in 2theta continuous scan mode in the range of 3.5° to 40°.

Data set [2] can be described thus: Solubility of Form M in various media. The following applies: water, hydrochloric acid, acetate Buffer, and phosphate Buffer at different pH. In kind it is physicochemical.

For the compound `CCOc1cc(C(CS(C)(=O)=O)N2C(=O)c3cccc(NC(C)=O)c3C2=O)ccc1OC` (centres unmarked) [Form M], in data set [1], the stability of polymorph result is on record as “stable”. In addition, the “solubility in various medium” value in data set [2] is on record as “good solubility”.
